#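 48-hour exposure; five concentrations; linearly interpolated endpoints. GI50: concentration for 50% inhibition of growth. TGI is the concentration that stops growth completely.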
# Tests used:
# Assay in all cases: NCI anticancer screen, dose series, 48 h
# [1] = tested on: CCRF-CEM leukemia
# [2] = tested on: HCT-15 colon
# [3] = tested on: K-562 leukemia
# [4] = tested on: NCI-H226 lung
# [5] = tested on: NCI-H522 lung
# [6] = tested on: SF-268 CNS
# [7] = tested on: SN12C renal
# [8] = tested on: TK-10 renal
# [9] = tested on: DMS 114 small cell lung
# [10] = tested on: KM20L2 colon
# [11] = tested on: M19-MEL melanoma
# [12] = tested on: SNB-78 CNS
SMILES,GI50 [1] [µM],TGI [1] [µM],GI50 [2] [µM],TGI [2] [µM],GI50 [3] [µM],TGI [3] [µM],GI50 [4] [µM],TGI [4] [µM],GI50 [5] [µM],TGI [5] [µM],GI50 [6] [µM],TGI [6] [µM],GI50 [7] [µM],TGI [7] [µM],GI50 [8] [µM],TGI [8] [µM],TGI [9] [µM],TGI [10] [µM],TGI [11] [µM],TGI [12] [µM]
CC1=NN(C(=O)c2nn(-c3ccc(Cl)cc3)cc2O)C(=O)C1,0.608,> 22,0.845,> 100,0.501,> 100,3.17,> 67.5,1.44,> 86.5,0.632,> 100,1.81,> 100,0.578,> 100,,,,
CCCCN(CCCC)CCC(O)c1cc2ccc(C(F)(F)F)cc2c2cc(C(F)(F)F)ccc12 (centres undefined),2.96,8.96,2.15,7.29,2.06,5.59,2.88,10.5,1.79,3.54,4.98,18.3,3.84,14.6,2.28,4.62,,,,
COc1ccc2c(c1)C=C1CSCC3=Cc4cc(OC)ccc4OC13O2,0.328,> 85.3,0.359,> 100,0.228,> 100,,> 100,0.232,0.937,2.86,> 100,0.723,> 100,> 100,> 100,,,,
CCc1c2c(nc3ccc(OCc4ccc(B5OC(C)(C)C(C)(C)O5)cc4)cc13)-c1cc3c(c(=O)n1C2)COC(=O)[C@]3(O)CC,< 0.01,> 100,0.331,> 100,0.0562,> 100,0.0214,0.454,0.0204,> 100,< 0.01,> 100,< 0.01,> 100,1.83,> 100,,,,
COc1ccc(/C=N\O[Si](C)(C)C(C)(C)C)cc1O[Si](C)(C)C(C)(C)C,,48,,34,,37.2,,,,,,39.4,,35.1,,36.3,35.6,> 100,36.5,36.1
Oc1ccc(O)c2c1C1(Cl)C(Cl)=C(Cl)C2(Cl)C1(Cl)Cl,4.14,> 100,4.15,26.1,2.94,93,10.7,41,3.55,12.1,3.31,15.5,5.29,22.7,4.96,27.7,,,,
OC1c2ccccc2C2C(O)c3ccccc3C12 (centres undefined),,> 100,,> 100,,> 100,,,,> 100,,> 100,,> 100,,> 100,> 100,> 100,> 100,
O=C1NN=C(c2ccc([N+](=O)[O-])cc2)C1n1nc(-c2ccccc2)c2ccccc2c1=O (centres undefined),,> 100,,> 68.5,,> 100,,> 100,,> 100,,> 100,,> 100,,> 100,,> 100,> 100,> 100
NNC(=S)N/N=C(/C(=O)Nc1ccc([N+](=O)[O-])cc1)c1nc2ccc([N+](=O)[O-])cc2[nH]c1=O,,> 100,,> 100,,> 100,,> 100,,> 100,,> 100,,> 100,,> 100,> 100,,> 100,> 100
O=C1NN=CN2C(=O)CCC12 (centres undefined),,> 100,,> 100,,> 100,,,,,,> 100,,> 100,,> 100,> 100,> 100,> 100,> 100
CCC(=O)c1c(C(F)(F)F)n([O-])c2ccccc2[n+]1=O,0.621,10.5,1.09,4.88,1.35,33.3,2.09,9.06,2.36,> 21.4,1.22,6.34,1.98,7.29,2.81,14.5,,,,
O=C1NC(SCc2ccc(F)cc2)=N/C1=C/c1cccc(OCc2ccc(Cl)cc2)c1,64.2,> 100,55.3,> 100,28.8,> 100,5.42,> 100,57.3,> 100,> 100,> 100,4.52,> 100,6.07,87.8,,,,
c1ccc(/C(=N\Nc2ccc3ccccc3n2)c2ccccn2)cc1,0.298,1.47,0.417,14.8,0.649,6.52,0.534,5.16,0.412,21.7,0.743,9.87,0.507,25.6,0.372,5.31,,,,
C=C1C(=O)O[C@H]2[C@H]1CC/C(CNC(=O)/C=C/c1ccc(Cl)cc1Cl)=C\CC[C@@]1(C)O[C@@H]21,0.304,1.19,1.01,2.33,0.696,4.16,2.33,5.72,1.09,2.51,1.09,2.67,1.73,4.08,1.55,2.9,,,,
O=C(Cn1c2ccccc2c2ccncc21)N/N=C\c1ccc2ccccc2c1,45.1,> 100,14.7,> 100,24.7,> 100,21.9,65.2,19.6,51.5,18.7,91.6,14.7,46.6,27.3,54.7,,,,
C=C(C)C(=O)O[C@H]1CC2=CC(CC(C)=C[C@H]3OC(=O)C(=C)C13)OC2=O (some centres undefined),,17.9,,25.6,,22.5,,> 100,,17,,68.5,,51.4,,22.6,,,,

# Source: PubChem BioAssay (NCI)
